Measured values taken from patent publication US20220281848A1, “PYRAZOLE-SUBSTITUTED PYRROLIDINONES AS HERBICIDES” (FMC Corporation, priority 2019, published 2022).

Tested on: plants
Experiment: Test D pre-emergence, other plants of Tables D1 and D3
Format: in vivo
Settings: for ABUTH damage to plant (100=total damage; 0=no damage) / AMARE damage to plant (100=total damage; 0=no damage) / DIGSA damage to plant (100=total damage; 0=no damage) / ECHCG damage to plant (100=total damage; 0=no damage) / ORYSA damage to plant (100=total damage; 0=no damage) / PANMI damage to plant (100=total damage; 0=no damage) / SETFA damage to plant (100=total damage; 0=no damage): preemergent
Outline: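 Damage was rated visually from 0 (none) to 100 (total), at 20 DAA for pre-emergence and 15 d for post-emergence. Plants grew from safener-treated seed in a glasshouse at 24/18° C. or 20/16° C. day/night, 65% humidity, watered twice daily.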

[1] = pre-emergence, rate 15, 20 DAA, 100=total damage, 0=no damage
[2] = pre-emergence, rate 30, 20 DAA, 100=total damage, 0=no damage
[3] = pre-emergence, rate 60, 20 DAA, 100=total damage, 0=no damage
[4] = pre-emergence, rate 130, 20 DAA, 100=total damage, 0=no damage
[5] = pre-emergence, rate 250, 20 DAA, 100=total damage, 0=no damage
[6] = pre-emergence, rate 500, 20 DAA, 100=total damage, 0=no damage

Compound: CN1CC(c2cc(C(F)(F)F)n(C)n2)C(C(=O)Nc2ccc(F)cc2C(C)(F)F)C1=O (racemic) [Compound 26]
- VERPE damage rating (VERPE, Rates 500, pre-emergence, 20 DAA, 100=total damage, 0=no damage): 80
- damage to plant, ALOMY [1]: 0
- damage to plant, AVEFA [1]: 0
- damage to plant, BEAVA [1]: 0
- damage to plant, BROTE [1]: 0
- damage to plant, BRSNN [1]: 0
- damage to plant, HORVW [1]: 0
- damage to plant, SINAR [1]: 0
- damage to plant, ALOMY [2]: 0
- damage to plant, AVEFA [2]: 0
- damage to plant, BEAVA [2]: 0
- damage to plant, BROTE [2]: 0
- damage to plant, BRSNN [2]: 0
- damage to plant, HORVW [2]: 0
- damage to plant, SINAR [2]: 0
- damage to plant, ALOMY [3]: 0
- damage to plant, AVEFA [3]: 0
- damage to plant, BEAVA [3]: 0
- damage to plant, BROTE [3]: 0
- damage to plant, BRSNN [3]: 0
- damage to plant, HORVW [3]: 0
- damage to plant, SINAR [3]: 0
- damage to plant, ALOMY [4]: 10
- damage to plant, AVEFA [4]: 10
- damage to plant, BEAVA [4]: 0
- damage to plant, BROTE [4]: 0
- damage to plant, BRSNN [4]: 0
- damage to plant, HORVW [4]: 10
- damage to plant, SINAR [4]: 0
- damage to plant, ALOMY [5]: 70
- damage to plant, AVEFA [5]: 50
- damage to plant, BEAVA [5]: 0
- damage to plant, BRSNN [5]: 0
- damage to plant, HORVW [5]: 40
- damage to plant, SINAR [5]: 0
- damage to plant, ALOMY [6]: 70
- damage to plant, AVEFA [6]: 90
- damage to plant, BEAVA [6]: 0
- damage to plant, BROTE [6]: 10
- damage to plant, BRSNN [6]: 10
- damage to plant, HORVW [6]: 30
- damage to plant, SINAR [6]: 0
- ABUTH damage to plant (100=total damage; 0=no damage) (Rates 15, 20 DAA): 0
- AMARE damage to plant (100=total damage; 0=no damage) (Rates 15, 20 DAA): 0
- DIGSA damage to plant (100=total damage; 0=no damage) (Rates 15, 20 DAA): 20
- ECHCG damage to plant (100=total damage; 0=no damage) (Rates 15, 20 DAA): 0
- ORYSA damage to plant (100=total damage; 0=no damage) (Rates 15, 20 DAA): 0
- PANMI damage to plant (100=total damage; 0=no damage) (Rates 15, 20 DAA): 0
- SETFA damage to plant (100=total damage; 0=no damage) (Rates 15, 20 DAA): 0
- ABUTH damage to plant (100=total damage; 0=no damage) (Rates 30, 20 DAA): 0
- AMARE damage to plant (100=total damage; 0=no damage) (Rates 30, 20 DAA): 0
- DIGSA damage to plant (100=total damage; 0=no damage) (Rates 30, 20 DAA): 90
- ECHCG damage to plant (100=total damage; 0=no damage) (Rates 30, 20 DAA): 10
- ORYSA damage to plant (100=total damage; 0=no damage) (Rates 30, 20 DAA): 0
- PANMI damage to plant (100=total damage; 0=no damage) (Rates 30, 20 DAA): 0
- SETFA damage to plant (100=total damage; 0=no damage) (Rates 30, 20 DAA): 20
- ABUTH damage to plant (100=total damage; 0=no damage) (Rates 60, 20 DAA): 0
- AMARE damage to plant (100=total damage; 0=no damage) (Rates 60, 20 DAA): 0
- DIGSA damage to plant (100=total damage; 0=no damage) (Rates 60, 20 DAA): 90
- ECHCG damage to plant (100=total damage; 0=no damage) (Rates 60, 20 DAA): 30
- ORYSA damage to plant (100=total damage; 0=no damage) (Rates 60, 20 DAA): 0
- PANMI damage to plant (100=total damage; 0=no damage) (Rates 60, 20 DAA): 0
- SETFA damage to plant (100=total damage; 0=no damage) (Rates 60, 20 DAA): 70
- ABUTH damage to plant (100=total damage; 0=no damage) (Rates 130, 20 DAA): 0
- AMARE damage to plant (100=total damage; 0=no damage) (Rates 130, 20 DAA): 0
- DIGSA damage to plant (100=total damage; 0=no damage) (Rates 130, 20 DAA): 90
- ECHCG damage to plant (100=total damage; 0=no damage) (Rates 130, 20 DAA): 20
- ORYSA damage to plant (100=total damage; 0=no damage) (Rates 130, 20 DAA): 0
- PANMI damage to plant (100=total damage; 0=no damage) (Rates 130, 20 DAA): 0
- SETFA damage to plant (100=total damage; 0=no damage) (Rates 130, 20 DAA): 90
- ABUTH damage to plant (100=total damage; 0=no damage) (Rates 250, 20 DAA): 0
- AMARE damage to plant (100=total damage; 0=no damage) (Rates 250, 20 DAA): 70
- DIGSA damage to plant (100=total damage; 0=no damage) (Rates 250, 20 DAA): 90
- ECHCG damage to plant (100=total damage; 0=no damage) (Rates 250, 20 DAA): 60
- ORYSA damage to plant (100=total damage; 0=no damage) (Rates 250, 20 DAA): 0
- PANMI damage to plant (100=total damage; 0=no damage) (Rates 250, 20 DAA): 0
- SETFA damage to plant (100=total damage; 0=no damage) (Rates 250, 20 DAA): 90
- ABUTH damage to plant (100=total damage; 0=no damage) (Rates 500, 20 DAA): 0
- AMARE damage to plant (100=total damage; 0=no damage) (Rates 500, 20 DAA): 60
- DIGSA damage to plant (100=total damage; 0=no damage) (Rates 500, 20 DAA): 90
- ECHCG damage to plant (100=total damage; 0=no damage) (Rates 500, 20 DAA): 90
- ORYSA damage to plant (100=total damage; 0=no damage) (Rates 500, 20 DAA): 0
- PANMI damage to plant (100=total damage; 0=no damage) (Rates 500, 20 DAA): 0
- SETFA damage to plant (100=total damage; 0=no damage) (Rates 500, 20 DAA): 90
